Measurements: US10865208B2, “ATG7 inhibitors and the uses thereof” (Millennium Pharmaceuticals, Inc., priority 2016, dated 2020)
pIC50: −log10 of the molar value.

Target: recombinant human His-ATG7 enzyme (Homo sapiens (Human), UniProt O95352)
Test: ATG7 Enzyme Assay (HTRF/FRET, ATG3-GST and Flag-Gabarap)
Format: biochemical
Conditions: for inhibition at 0.123 µM / inhibition at 0.111 µM / inhibition at 0.069 µM: read-out: Percent Inhibition; for inhibition at 0.069 µM: Concentration 0.069 μM
Method: Example 97: ATG7 Enzyme Assay
The total volume of the ATG7 enzymatic assay is 50 μL and contains 50 mM HEPES Hemisodium (pH 7.5), 0.05% BSA, 0.01% Tween-20, 25 mM NaCl, 5 mM MgCl2, 10 μM ATP, 250 μM GSH, 5 nM ATG3-GST, 5 nM Flag-Gabarap, 100 μM TCEP and 0.15 nM recombinant human His-ATG7 enzyme. The enzymatic reaction mixture, with and without inhibitor, was incubated at 24° C. for 105 min in a 384-well plate before termination with […] of Stop/Detection buffer (0.1M HEPES Hemisodium pH 7.5, 0.05% Tween20, 20 mM EDTA, 410 mM KF, 0.53 nM Europium-Cryptate labeled monoclonal anti-Flag M2 Antibody (CisBio International) and 8.125 μg/ml PHYCOLINK goat anti-GST allophycocyanin (XL-APC) antibody (Prozyme)). After incubation for 2 hours at 24° C., quantification of FRET is performed on the Pherostar™ (BMG Labtech). Percentage inhibition values at a single concentration or enzyme inhibition (IC50) values are determined from those curves. One skilled in the art will appreciate that the values generated either as percentage inhibition at a single concentration or IC50 values are subject to experimental variation.

Sequence of recombinant human His-ATG7 enzyme (O95352 whole entry): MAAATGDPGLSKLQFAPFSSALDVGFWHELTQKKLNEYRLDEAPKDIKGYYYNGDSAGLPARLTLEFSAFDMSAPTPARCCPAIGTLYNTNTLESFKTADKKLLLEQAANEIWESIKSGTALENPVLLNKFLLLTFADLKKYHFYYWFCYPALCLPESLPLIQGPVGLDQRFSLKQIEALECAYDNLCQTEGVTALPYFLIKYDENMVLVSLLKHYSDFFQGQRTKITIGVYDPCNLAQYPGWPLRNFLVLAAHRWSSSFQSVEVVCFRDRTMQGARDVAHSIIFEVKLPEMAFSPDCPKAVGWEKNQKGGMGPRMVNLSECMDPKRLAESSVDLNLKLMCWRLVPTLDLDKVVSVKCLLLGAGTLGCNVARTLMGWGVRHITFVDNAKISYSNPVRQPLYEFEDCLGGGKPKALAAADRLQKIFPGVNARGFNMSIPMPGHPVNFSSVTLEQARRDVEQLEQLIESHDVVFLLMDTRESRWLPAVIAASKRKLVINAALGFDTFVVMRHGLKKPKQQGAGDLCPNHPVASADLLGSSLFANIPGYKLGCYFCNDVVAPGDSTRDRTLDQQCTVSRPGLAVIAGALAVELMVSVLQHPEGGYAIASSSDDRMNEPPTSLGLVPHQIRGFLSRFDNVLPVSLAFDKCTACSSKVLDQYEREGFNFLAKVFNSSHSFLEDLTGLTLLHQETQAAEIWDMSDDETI

Structure (SMILES)	pIC50	inhibition at 0.069 µM [%]	also measured
CC(O)CSc1nn([C@@H]2O[C@H](COS(N)(=O)=O)[C@@H](O)[C@H]2O)c2ncnc(N)c12 (single isomer, unassigned) [Compound I-55a, [(2R,3S,4R,5R)-5-(4-amino-3-{[(2R)-2-hydroxypropyl]sulfanyl}-1H-pyrazolo[3,4-d]pyrimidin-1-yl)-3,4-dihydroxytetrahydrofuran-2-yl]methyl sulfamate or [(2R,3S,4R,5R)-5-(4-amino-3-{[(2S)-2-hydroxypropyl]sulfanyl}-1H-pyrazolo[3,4-d]pyrimidin-1-yl)-3,4-dihydroxytetrahydrofuran-2-yl]methyl Sulfamate]	7.00 to 7.30		Percent Inhibition (Concentration 0.123 μM): 71%
CC(O)CSc1nn([C@@H]2O[C@H](COS(N)(=O)=O)[C@@H](O)[C@H]2O)c2ncnc(N)c12 (single isomer, unassigned) [Compound I-55b, [(2R,3S,4R,5R)-5-(4-amino-3-{[(2R)-2-hydroxypropyl]sulfanyl}-1H-pyrazolo[3,4-d]pyrimidin-1-yl)-3,4-dihydroxytetrahydrofuran-2-yl]methyl sulfamate or [(2R,3S,4R,5R)-5-(4-amino-3-{[(2S)-2-hydroxypropyl]sulfanyl}-1H-pyrazolo[3,4-d]pyrimidin-1-yl)-3,4-dihydroxytetrahydrofuran-2-yl]methyl Sulfamate]	7.00 to 7.30		inhibition at 0.123 µM (Concentration 0.123 μM): 68%
CCC(C)Sc1nn([C@@H]2O[C@H](COS(N)(=O)=O)[C@@H](O)[C@@H]2F)c2ncnc(N)c12 (single isomer, unassigned) [Compound I-136a]	7.00 to 7.30		Percent Inhibition (Concentration 0.111 μM): 63%
CCC(C)Sc1nn([C@@H]2O[C@H](COS(N)(=O)=O)[C@@H](O)[C@@H]2F)c2ncnc(N)c12 (single isomer, unassigned) [Compound I-136b]	7.00 to 7.30		inhibition at 0.111 µM (Concentration 0.111 μM): 61%
Cc1ccc(Sc2nn([C@H]3C[C@H](O)C(COS(N)(=O)=O)O3)c3ncnc(N)c23)c(F)c1 (stereo in doubt) [Compound I-211, [(2S,3S,5R)-5-{4-amino-3-[(2-fluoro-4-methylphenyl)sulfanyl]-1H-pyrazolo[3,4-d]pyrimidin-1-yl}-3-hydroxytetrahydrofuran-2-yl]methyl Sulfamate]	7.00 to 7.30		Percent Inhibition (Concentration 0.111 μM): 64%
Nc1ncnc2c1cnn2[C@H]1C[C@H](O)C(COS(N)(=O)=O)O1 (stereo in doubt) [Compound I-226, [(2S,3S,5R)-5-(4-amino-1H-pyrazolo[3,4-d]pyrimidin-1-yl)-3-hydroxytetrahydrofuran-2-yl]methyl sulfamate]	< 6.30		inhibition at 0.111 µM (Concentration 0.111 μM): 5%
Nc1ncnc2c1c(COCc1ccccc1)nn2[C@@H]1O[C@H](COS(N)(=O)=O)[C@@H](O)[C@H]1O [Compound I-4, [(2R,3S,4R,5R)-5-{4-amino-3-[(benzyloxy)methyl]-1H-pyrazolo[3,4-d]pyrimidin-1-yl}-3,4-dihydroxytetrahydrofuran-2-yl]methyl Sulfamate]	6.30 to 7.00	32	
CC(C)Oc1nn([C@@H]2O[C@H](COS(N)(=O)=O)[C@@H](O)[C@H]2O)c2ncnc(N)c12 [Compound I-7, [(2R,3S,4R,5R)-5-(4-amino-3-isopropoxy-1H-pyrazolo[3,4-d]pyrimidin-1-yl)-3,4-dihydroxytetrahydrofuran-2-yl]methyl sulfamate]	< 6.30	7	
Nc1ncnc2c1c(C(F)(F)F)nn2[C@@H]1O[C@H](COS(N)(=O)=O)[C@@H](O)[C@H]1O [Compound I-10, {(2R,3S,4R,5R)-5-[4-amino-3-(trifluoromethyl)-1H-pyrazolo[3,4-d]pyrimidin-1-yl]-3,4-dihydroxytetrahydrofuran-2-yl}methyl Sulfamate]	7.00 to 7.30	48	
Nc1ncnc2c1c(CCc1ccccc1)nn2[C@@H]1O[C@H](COS(N)(=O)=O)[C@@H](O)[C@H]1O [Compound I-12, {(2R,3S,4R,5R)-5-[4-amino-3-(2-phenylethyl)-1H-pyrazolo[3,4-d]pyrimidin-1-yl]-3,4-dihydroxytetrahydrofuran-2-yl}methyl Sulfamate]	6.30 to 7.00		inhibition at 0.123 µM (Concentration 0.123 μM): 20%

The next lines start with results.

pIC50	inhibition at 0.069 µM [%]	Structure (SMILES)	also measured
6.30 to 7.00		COC(=O)c1nn([C@@H]2O[C@H](COS(N)(=O)=O)C(O)C2O)c2ncnc(N)c12 (stereo in doubt) [Compound I-20, methyl 4-amino-1-{(2R,3S,4R,5R)-3,4-dihydroxy-5-[(sulfamoyloxy)methyl]tetrahydrofuran-2-yl}-1H-pyrazolo[3,4-d]pyrimidine-3-carboxylate]	inhibition at 0.123 µM (Concentration 0.123 μM): 45%
7.00 to 7.30		COc1nn([C@@H]2O[C@H](COS(N)(=O)=O)[C@@H](O)[C@H]2O)c2ncnc(N)c12 [Compound I-1, [(2R,3S,4R,5R)-5-(4-amino-3-methoxy-1H-pyrazolo[3,4-d]pyrimidin-1-yl)-3,4-dihydroxytetrahydrofuran-2-yl]methyl sulfamate]	inhibition at 0.123 µM (Concentration 0.123 μM): 51%
6.30 to 7.00		Cc1nn([C@@H]2O[C@H](COS(N)(=O)=O)[C@@H](O)[C@H]2O)c2ncnc(N)c12 [Compound I-2, [(2R,3S,4R,5R)-5-(4-amino-3-methyl-1H-pyrazolo[3,4-d]pyrimidin-1-yl)-3,4-dihydroxytetrahydrofuran-2-yl]methyl Sulfamate]	inhibition at 0.123 µM (Concentration 0.123 μM): 42%
6.30 to 7.00	24	CC(C)c1nn([C@@H]2O[C@H](COS(N)(=O)=O)[C@@H](O)[C@H]2O)c2ncnc(N)c12 [Compound I-3, [(2R,3S,4R,5R)-5-(4-amino-3-isopropyl-1H-pyrazolo[3,4-d]pyrimidin-1-yl)-3,4-dihydroxytetrahydrofuran-2-yl]methyl Sulfamate]	
6.30 to 7.00	23	CCOc1nn([C@@H]2O[C@H](COS(N)(=O)=O)[C@@H](O)[C@H]2O)c2ncnc(N)c12 [Compound I-5, [(2R,3S,4R,5R)-5-(4-amino-3-ethoxy-1H-pyrazolo[3,4-d]pyrimidin-1-yl)-3,4-dihydroxytetrahydrofuran-2-yl]methyl Sulfamate]	
6.30 to 7.00	31	CCc1nn([C@@H]2O[C@H](COS(N)(=O)=O)[C@@H](O)[C@H]2O)c2ncnc(N)c12 [Compound I-6, [(2R,3S,4R,5R)-5-(4-amino-3-ethyl-1H-pyrazolo[3,4-d]pyrimidin-1-yl)-3,4-dihydroxytetrahydrofuran-2-yl]methyl Sulfamate]	
6.30 to 7.00	32	Nc1ncnc2c1c(CO)nn2[C@@H]1O[C@H](COS(N)(=O)=O)[C@@H](O)[C@H]1O [Compound I-8, {(2R,3S,4R,5R)-5-[4-amino-3-(hydroxymethyl)-1H-pyrazolo[3,4-d]pyrimidin-1-yl]-3,4-dihydroxytetrahydrofuran-2-yl}methyl Sulfamate]	
7.00 to 7.30	52	C#Cc1nn([C@@H]2O[C@H](COS(N)(=O)=O)[C@@H](O)[C@H]2O)c2ncnc(N)c12 [Compound I-9, [(2R,3S,4R,5R)-5-(4-amino-3-ethynyl-1H-pyrazolo[3,4-d]pyrimidin-1-yl)-3,4-dihydroxytetrahydrofuran-2-yl]methyl Sulfamate]	
< 6.30	9	COCC#Cc1nn([C@@H]2O[C@H](COS(N)(=O)=O)[C@@H](O)[C@H]2O)c2ncnc(N)c12 [Compound I-11, {(2R,3S,4R,5R)-5-[4-amino-3-(3-methoxyprop-1-yn-1-yl)-1H-pyrazolo[3,4-d]pyrimidin-1-yl]-3,4-dihydroxytetrahydrofuran-2-yl}methyl Sulfamate]	
7.30 to 7.70		N#Cc1nn([C@@H]2O[C@H](COS(N)(=O)=O)[C@@H](O)[C@H]2O)c2ncnc(N)c12 [Compound I-13, [(2R,3S,4R,5R)-5-(4-amino-3-cyano-1H-pyrazolo[3,4-d]pyrimidin-1-yl)-3,4-dihydroxytetrahydrofuran-2-yl]methyl Sulfamate]	inhibition at 0.123 µM (Concentration 0.123 μM): 80%
6.30 to 7.00	17	CC#Cc1nn([C@@H]2O[C@H](COS(N)(=O)=O)[C@@H](O)[C@H]2O)c2ncnc(N)c12 [Compound I-14, {(2R,3S,4R,5R)-5-[4-amino-3-(prop-1-yn-1-yl)-1H-pyrazolo[3,4-d]pyrimidin-1-yl]-3,4-dihydroxytetrahydrofuran-2-yl}methyl Sulfamate]	
< 6.30	16	NCc1nn([C@@H]2O[C@H](COS(N)(=O)=O)[C@@H](O)[C@H]2O)c2ncnc(N)c12 [Compound I-15, {(2R,3S,4R,5R)-5-[4-amino-3-(aminomethyl)-1H-pyrazolo[3,4-d]pyrimidin-1-yl]-3,4-dihydroxytetrahydrofuran-2-yl}methyl Sulfamate]	
6.30 to 7.00	22	NC(=O)c1nn([C@@H]2O[C@H](COS(N)(=O)=O)[C@@H](O)[C@H]2O)c2ncnc(N)c12 [Compound I-16, [(2R,3S,4R,5R)-5-(4-amino-3-carbamoyl-1H-pyrazolo[3,4-d]pyrimidin-1-yl)-3,4-dihydroxytetrahydrofuran-2-yl]methyl Sulfamate]	
< 6.30	10	NCC#Cc1nn([C@@H]2O[C@H](COS(N)(=O)=O)[C@@H](O)[C@H]2O)c2ncnc(N)c12 [Compound I-17, {(2R,3S,4R,5R)-5-[4-amino-3-(3-aminoprop-1-yn-1-yl)-1H-pyrazolo[3,4-d]pyrimidin-1-yl]-3,4-dihydroxytetrahydrofuran-2-yl}methyl Sulfamate]	
